From ChEMBL document CHEMBL3390834, “Development of second generation epigenetic agents” (Medchemcomm, 2012)
pIC50, pKd: −log10 of the molar value.

Key:
[1] = molecular target: Histone acetyltransferase KAT2B (Homo sapiens, UniProt Q92831); test: Inhibition of FLAG epitope-tagged recombinant human PCAF expressed in baculovirus infected insect Sf21 cells using [3H]acetyl-CoA as substrate preincubated for 10 mins followed by substrate addition measured after 10 mins by liquid scintillation counting analysis
[2] = molecular target: T1, Histone acetyltransferase p300 (Homo sapiens, UniProt Q09472); test: biochemical
Description: Inhibition of His6-tagged recombinant full length p300 (unknown origin) expressed in baculovirus infected insect Sf21 cells using [3H]acetyl-CoA as substrate preincubated for 10 mins followed by substrate addition measured after 10 mins by liquid scintillation counting analysis

[3] = Half life in C57BL/6J mouse at 10 mg/kg, po; assay type: ADME, organism-based; parameters: dose 10 mg/kg, route oral; settings: in vivo
[4] = molecular target: T2, Lysine-specific histone demethylase 1A (Homo sapiens, UniProt O60341); test: Inhibition of N-terminal His-6-tagged full length human LSD-1 expressed in Escherichia coli BL21 (DE3) using H3K4me2 peptide as substrate by Western blotting analysis
[5] = molecular target: T2, Lysine-specific histone demethylase 1A; test: Inhibition of LSD-1 (unknown origin)
Homo sapiens = species on record: Homo sapiens; test: Selectivity ratio of IC50 for MAO-B (unknown origin) to IC50 for LSD-1 (unknown origin)
[6] = molecular target: T2, Lysine-specific histone demethylase 1A; test: Inhibition of N-terminal His-6-tagged full length human LSD-1 expressed in Escherichia coli BL21 (DE3) using H3K4me2 peptide as substrate at 1 uM by Western blotting analysis relative to control
[7] = molecular target: T1, Histone acetyltransferase p300; test: Inhibition of recombinant p300 (unknown origin) expressed in baculovirus expression system using [3H]acetyl-CoA as substrate preincubated for 10 mins followed by substrate addition measured after 10 mins by liquid scintillation counting analysis
[8] = molecular target: NAD-dependent protein deacetylase sirtuin-1 (Homo sapiens, UniProt Q96EB6); test: Inhibition of recombinant human GST-tagged SIRT-1 using ZMAL as substrate after 4 hrs by homogeneous fluorescent deacetylase assay
[9] = molecular target: T2, Lysine-specific histone demethylase 1A; test: Inhibition of human LSD-1 by fluorescence-based assay
[10] = molecular target: T3, Lysine-specific demethylase 4E (Homo sapiens, UniProt B2RXH2)
T3 sequence (B2RXH2 whole entry): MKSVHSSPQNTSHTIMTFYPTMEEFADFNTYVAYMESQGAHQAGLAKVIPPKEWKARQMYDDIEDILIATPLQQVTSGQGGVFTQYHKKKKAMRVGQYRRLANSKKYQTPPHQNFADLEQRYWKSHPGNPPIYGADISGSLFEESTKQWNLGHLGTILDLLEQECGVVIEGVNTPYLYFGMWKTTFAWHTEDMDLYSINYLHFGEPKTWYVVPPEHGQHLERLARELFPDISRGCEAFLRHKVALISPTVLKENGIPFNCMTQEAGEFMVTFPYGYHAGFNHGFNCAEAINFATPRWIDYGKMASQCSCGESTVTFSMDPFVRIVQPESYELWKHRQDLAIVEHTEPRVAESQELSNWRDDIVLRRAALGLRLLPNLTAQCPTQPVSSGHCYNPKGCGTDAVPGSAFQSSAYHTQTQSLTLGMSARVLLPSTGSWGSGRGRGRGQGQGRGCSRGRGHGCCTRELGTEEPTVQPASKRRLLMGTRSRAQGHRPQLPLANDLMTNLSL
Description: Inhibition of N-terminal His-6-tagged human JMJD2E (1 to 337 residues) expressed in Escherichia coli by MALDI-TOF/MS analysis

[11] = Inhibition of DIM-5 (unknown origin)
[12] = Growth inhibition of human KYSE-150 cells after 48 hrs; assay type: functional; settings: KYSE-150, 48 h
Histone deacetylase = test: Inhibition of HDAC isolated from human HeLa cell nuclear extracts using Fluor de Lys as substrate after 30 mins by fluorescence assay; assay type: protein assay
[13] = Inhibition of yeast Sir2p HAD activity using [3H]-acetylated histone H4 as substrate assessed as release of free [3H]-acetate after 16 hrs; parameters: species or system Saccharomyces cerevisiae
Saccharomyces cerevisiae [14] = test: Selectivity for yeast Hst1p over yeast Sir2p
[15] = molecular target: T1, Histone acetyltransferase p300; test: Inhibition of recombinant full length p300 (unknown origin) expressed in baculovirus infected insect Sf21 cells using [3H]acetyl-CoA as substrate
[16] = molecular target: T1, Histone acetyltransferase p300; test: Binding affinity to p300 (unknown origin) by ITC analysis
Saccharomyces cerevisiae [17] = test: Selectivity for yeast Sir2p over yeast Hst1p

T1 sequence (Q09472 whole entry): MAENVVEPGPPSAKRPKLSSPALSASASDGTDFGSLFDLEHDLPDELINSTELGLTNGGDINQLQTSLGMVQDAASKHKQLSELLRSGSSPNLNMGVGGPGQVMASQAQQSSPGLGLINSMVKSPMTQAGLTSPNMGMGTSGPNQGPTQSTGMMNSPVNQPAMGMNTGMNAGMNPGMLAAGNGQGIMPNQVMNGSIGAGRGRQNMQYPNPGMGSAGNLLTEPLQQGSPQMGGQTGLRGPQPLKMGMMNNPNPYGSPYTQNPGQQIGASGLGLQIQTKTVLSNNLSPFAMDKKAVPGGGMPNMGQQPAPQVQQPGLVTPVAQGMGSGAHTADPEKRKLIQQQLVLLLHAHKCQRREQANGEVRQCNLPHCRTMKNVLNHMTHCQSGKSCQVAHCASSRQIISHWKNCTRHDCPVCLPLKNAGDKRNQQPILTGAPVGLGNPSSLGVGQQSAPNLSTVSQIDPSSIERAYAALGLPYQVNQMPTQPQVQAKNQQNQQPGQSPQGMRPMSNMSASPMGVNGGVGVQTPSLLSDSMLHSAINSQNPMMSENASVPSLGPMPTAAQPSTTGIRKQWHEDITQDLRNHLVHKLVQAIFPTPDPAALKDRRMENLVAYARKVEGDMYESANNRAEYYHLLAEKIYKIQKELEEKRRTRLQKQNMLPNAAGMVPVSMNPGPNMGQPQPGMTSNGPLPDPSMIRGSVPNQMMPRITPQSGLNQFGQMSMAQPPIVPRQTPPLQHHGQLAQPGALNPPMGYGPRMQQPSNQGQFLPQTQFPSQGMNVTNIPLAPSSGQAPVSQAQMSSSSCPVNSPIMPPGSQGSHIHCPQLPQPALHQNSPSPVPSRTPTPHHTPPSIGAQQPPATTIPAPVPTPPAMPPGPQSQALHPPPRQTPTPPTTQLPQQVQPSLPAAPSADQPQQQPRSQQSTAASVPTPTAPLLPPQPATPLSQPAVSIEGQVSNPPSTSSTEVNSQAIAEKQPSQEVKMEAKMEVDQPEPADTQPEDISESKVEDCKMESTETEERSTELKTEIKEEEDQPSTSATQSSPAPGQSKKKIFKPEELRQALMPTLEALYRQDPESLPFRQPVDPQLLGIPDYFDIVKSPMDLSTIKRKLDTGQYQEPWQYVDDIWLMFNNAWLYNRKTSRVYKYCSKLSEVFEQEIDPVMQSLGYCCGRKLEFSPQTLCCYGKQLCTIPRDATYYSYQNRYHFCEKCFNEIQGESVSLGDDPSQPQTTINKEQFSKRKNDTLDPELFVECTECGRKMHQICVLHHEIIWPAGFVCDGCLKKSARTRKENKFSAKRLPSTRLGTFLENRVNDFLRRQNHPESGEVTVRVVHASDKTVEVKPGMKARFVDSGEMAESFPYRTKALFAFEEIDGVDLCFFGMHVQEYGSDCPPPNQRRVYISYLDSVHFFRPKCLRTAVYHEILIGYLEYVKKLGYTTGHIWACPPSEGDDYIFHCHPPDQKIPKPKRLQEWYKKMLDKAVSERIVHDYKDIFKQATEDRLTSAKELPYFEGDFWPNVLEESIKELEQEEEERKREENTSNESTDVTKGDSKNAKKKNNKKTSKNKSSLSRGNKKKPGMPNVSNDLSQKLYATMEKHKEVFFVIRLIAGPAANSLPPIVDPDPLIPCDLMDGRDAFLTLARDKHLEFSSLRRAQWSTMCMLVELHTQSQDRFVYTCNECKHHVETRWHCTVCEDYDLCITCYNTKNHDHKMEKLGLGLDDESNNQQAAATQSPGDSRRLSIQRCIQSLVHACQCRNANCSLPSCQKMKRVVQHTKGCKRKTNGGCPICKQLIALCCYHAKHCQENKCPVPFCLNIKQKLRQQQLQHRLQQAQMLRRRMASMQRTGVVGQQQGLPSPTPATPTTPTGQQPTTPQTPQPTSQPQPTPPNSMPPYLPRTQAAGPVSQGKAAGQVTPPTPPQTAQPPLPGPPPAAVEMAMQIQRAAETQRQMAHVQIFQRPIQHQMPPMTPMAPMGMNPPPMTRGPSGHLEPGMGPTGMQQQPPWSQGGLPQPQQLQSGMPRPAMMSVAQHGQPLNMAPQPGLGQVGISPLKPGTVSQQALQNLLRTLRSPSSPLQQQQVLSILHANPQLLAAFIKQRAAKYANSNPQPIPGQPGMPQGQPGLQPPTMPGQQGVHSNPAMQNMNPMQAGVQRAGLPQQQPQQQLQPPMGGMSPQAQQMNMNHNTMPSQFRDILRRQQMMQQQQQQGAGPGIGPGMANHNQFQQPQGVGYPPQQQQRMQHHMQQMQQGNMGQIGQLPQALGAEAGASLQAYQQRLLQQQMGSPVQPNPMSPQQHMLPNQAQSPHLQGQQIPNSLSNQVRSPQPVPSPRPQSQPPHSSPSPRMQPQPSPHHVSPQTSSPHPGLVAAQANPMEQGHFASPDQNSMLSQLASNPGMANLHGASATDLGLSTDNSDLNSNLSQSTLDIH
Chain of Histone acetyltransferase KAT2B (Q92831 whole entry): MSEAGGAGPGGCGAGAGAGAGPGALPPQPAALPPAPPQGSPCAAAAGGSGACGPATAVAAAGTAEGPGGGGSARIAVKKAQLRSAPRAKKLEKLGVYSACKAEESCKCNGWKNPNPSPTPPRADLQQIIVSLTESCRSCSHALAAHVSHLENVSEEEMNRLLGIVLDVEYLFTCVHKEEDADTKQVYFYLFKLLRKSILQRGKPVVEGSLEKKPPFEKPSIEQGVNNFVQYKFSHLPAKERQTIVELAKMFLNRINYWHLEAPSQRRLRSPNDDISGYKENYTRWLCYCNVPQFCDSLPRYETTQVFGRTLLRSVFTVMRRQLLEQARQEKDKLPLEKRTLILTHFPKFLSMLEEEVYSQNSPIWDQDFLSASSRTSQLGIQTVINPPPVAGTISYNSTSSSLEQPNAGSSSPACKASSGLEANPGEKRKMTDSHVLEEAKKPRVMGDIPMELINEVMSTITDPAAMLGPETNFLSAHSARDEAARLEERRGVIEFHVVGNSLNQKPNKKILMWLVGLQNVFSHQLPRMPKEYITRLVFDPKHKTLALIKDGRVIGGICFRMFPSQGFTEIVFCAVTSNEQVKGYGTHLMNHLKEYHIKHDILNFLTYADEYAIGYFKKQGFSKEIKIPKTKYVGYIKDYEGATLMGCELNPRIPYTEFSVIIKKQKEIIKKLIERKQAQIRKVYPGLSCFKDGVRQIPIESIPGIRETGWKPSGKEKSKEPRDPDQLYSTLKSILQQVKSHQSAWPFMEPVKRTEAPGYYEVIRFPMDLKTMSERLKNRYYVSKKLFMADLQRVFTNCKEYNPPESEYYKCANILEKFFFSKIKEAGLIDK
Chain of NAD-dependent protein deacetylase sirtuin-1 (Q96EB6 whole entry): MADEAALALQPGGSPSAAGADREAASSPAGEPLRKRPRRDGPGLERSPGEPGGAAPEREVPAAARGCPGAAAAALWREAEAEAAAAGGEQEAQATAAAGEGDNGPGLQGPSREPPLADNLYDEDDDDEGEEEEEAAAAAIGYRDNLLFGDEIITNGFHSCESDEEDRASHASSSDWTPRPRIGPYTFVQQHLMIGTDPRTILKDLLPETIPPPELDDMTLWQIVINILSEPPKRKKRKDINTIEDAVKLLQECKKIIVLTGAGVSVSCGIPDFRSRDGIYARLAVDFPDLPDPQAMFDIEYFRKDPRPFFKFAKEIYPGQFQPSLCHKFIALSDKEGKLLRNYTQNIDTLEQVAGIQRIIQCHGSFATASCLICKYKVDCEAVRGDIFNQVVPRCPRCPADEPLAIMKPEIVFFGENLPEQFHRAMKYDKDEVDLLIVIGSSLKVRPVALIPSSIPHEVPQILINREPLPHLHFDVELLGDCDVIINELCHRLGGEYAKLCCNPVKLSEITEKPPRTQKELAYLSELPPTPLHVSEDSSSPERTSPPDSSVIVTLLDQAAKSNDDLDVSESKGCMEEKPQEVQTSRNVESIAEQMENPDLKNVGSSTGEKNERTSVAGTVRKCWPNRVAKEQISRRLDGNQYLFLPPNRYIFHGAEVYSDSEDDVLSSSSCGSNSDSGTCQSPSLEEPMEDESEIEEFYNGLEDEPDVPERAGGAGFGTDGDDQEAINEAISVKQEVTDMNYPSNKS

Compound: CCCCCCCCCCCCCCCc1cccc(O)c1C(=O)O [ANACARDIC ACID]
- pIC50 [1]: 5.30
- pIC50 [2]: 5.07

Compound: NC(=O)C1CCCc2c1[nH]c1ccc(Cl)cc21 (stereo unspecified)
- half-life [3]: 2 h

Compound: CCNCCCCCCCCCCCCCCCCNC/C=C/CNCCCCCCCCCCCCCCCCNCC
- pIC50 [4]: 5.30

Compound: NC1CC1c1c(F)cc(F)cc1OCc1ccccc1 (stereo unspecified)
- pIC50 [5]: 6.00
- Ratio IC50 (Homo sapiens): > 250

Compound: C/N=C(\NC)NCCCNCCCNCCCN/C(=N/C)NC
- inhibition [6]: > 50%

Compound: N=C(NCCCNCCCCCCCNCCCNC(=N)NC(=N)NCCC(c1ccccc1)c1ccccc1)NC(=N)NCCC(c1ccccc1)c1ccccc1
- inhibition [6]: > 50%

Compound: COc1cc(C(=O)C2=C3OC(C)(C)[C@@H](CC=C(C)C)C[C@@]34C[C@@H](CC=C(C)C)C(C)(C)[C@@](CC=C(C)C)(C2=O)C4=O)ccc1O
- pIC50 [7]: 5.30

Compound: O=C1NC(=S)NC(=O)C1=Cc1cc2ccccc2[nH]1
- pIC50 [8]: 5.23

Compound: O=C(O)/C=C/C(=O)N(O)CCCCNCc1ccc(COC(=O)Nc2cccc3ccccc23)cc1
- pIC50 [9]: 3.21

Compound: NCCc1ccc(O)c(O)c1 [DOPAMINE]
- pIC50 [10]: 5.52

Compound: CN1C(=O)[C@@]23C[C@]4([C@]56C[C@@]78SS[C@@](CO)(C(=O)N7[C@H]5Nc5ccccc56)N(C)C8=O)c5ccccc5N[C@@H]4N2C(=O)[C@]1(CO)SS3 [CHAETOCIN]
- pIC50 [11]: 5.52

Compound: COC(=O)/C=C/C(=O)N(O)CCCCNCc1ccc(COC(=O)Nc2cccc3ccccc23)cc1
- GI50 [12]: 5.1 µM

Compound: O=C(CSSCC(=O)c1ccc(Br)cc1)c1ccc(Br)cc1
- IC50 (Histone deacetylase): 0.135 µM

Compound: O=C1CCc2c(ccc3ccccc23)O1 [SPLITOMICIN]
- pIC50 [13]: 4.22

Compound: O=c1ccc2c(ccc3ccccc32)o1
- Selectivity ratio (Saccharomyces cerevisiae [14]): 5

Compound: Oc1ccc(C2CNCCc3c2cc(O)c(O)c3Cl)cc1 (stereo unspecified) [FENOLDOPAM]
- pIC50 [10]: 5.52

Compound: CC1=CC(=O)c2c(O)cccc2C1=O [PLUMBAGIN]
- pIC50 [15]: 5.70
- pKd [16]: 5.70

Compound: O=C1CCc2c(c(OCc3ccccc3)cc3ccccc23)O1
- Selectivity ratio (Saccharomyces cerevisiae [17]): 13
